Assay results taken from patent publication US20130172320A1, “PYRIDO [4,3-B] INDOLE AND PYRIDO [3,4-B] INDOLE DERIVATIVES AND METHODS OF USE” (priority 2010, published 2013).

Key:
[1] = molecular target: T1, rat adrenergic α1A receptor (Rattus norvegicus, UniProt P43140); test: Adrenergic α1A radioligand binding ([3H]Prazosin); design: species or system Wistar Rat; settings: compound at 0.1 μM; read-out: Percentage inhibition of ligand binding, Adrenergic (0.1 μM) a1A
T1 construct: rat adrenergic α1A receptor obtained from Wistar Rat submaxillary glands; from tissue; host or cells: Wistar Rat submaxillary glands
T1 sequence (P43140 1-466): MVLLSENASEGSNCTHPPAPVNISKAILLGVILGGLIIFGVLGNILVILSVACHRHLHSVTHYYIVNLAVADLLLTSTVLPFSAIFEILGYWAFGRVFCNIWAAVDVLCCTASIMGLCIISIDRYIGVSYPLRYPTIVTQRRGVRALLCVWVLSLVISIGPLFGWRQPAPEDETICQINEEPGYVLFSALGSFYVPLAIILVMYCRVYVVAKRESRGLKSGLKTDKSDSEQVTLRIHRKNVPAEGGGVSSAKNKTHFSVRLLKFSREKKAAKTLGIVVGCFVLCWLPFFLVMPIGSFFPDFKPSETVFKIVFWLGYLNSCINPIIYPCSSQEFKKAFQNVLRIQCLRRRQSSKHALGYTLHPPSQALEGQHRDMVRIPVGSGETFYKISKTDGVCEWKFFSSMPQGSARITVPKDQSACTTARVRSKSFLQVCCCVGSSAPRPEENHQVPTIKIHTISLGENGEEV
Procedure: To evaluate in radioligand binding assays the activity of compounds of the invention, rat adrenergic α1A receptor obtained from Wistar Rat submaxillary glands (Michel, A. et al, Br. J. Pharmacol. 98:883, 1989) in a modified Tris-HCl buffer (50 mM Tris-HCl buffer, pH 7.4, 0.5 mM EDTA) was used. Compounds of the invention were incubated with 0.25 nM [^3H]Prazosin for 60 min at 25° C. Non-specific binding was estimated in the presence of 10 μM phentolamine Receptor proteins were filtered and washed, the filters were then counted to determine [^3H]Prazosin specifically bound. Compounds of the invention were screened at 1 μM or lower, using 1% DMSO as vehicle. Biochemical assay results are presented as the percent inhibition of specific binding in Table 3.

[2] = molecular target: T2, human recombinant adrenergic α2C receptor (Homo sapiens, UniProt P18825); test: Adrenergic α2C radioligand binding ([3H]MK-912); settings: compound at 0.1 μM; read-out: Percentage inhibition of ligand binding, Adrenergic (0.1 μM) a2C
T2 construct: expressed in transfected cells; host or cells: insect Sf9 cells
T2 sequence (P18825 1-462): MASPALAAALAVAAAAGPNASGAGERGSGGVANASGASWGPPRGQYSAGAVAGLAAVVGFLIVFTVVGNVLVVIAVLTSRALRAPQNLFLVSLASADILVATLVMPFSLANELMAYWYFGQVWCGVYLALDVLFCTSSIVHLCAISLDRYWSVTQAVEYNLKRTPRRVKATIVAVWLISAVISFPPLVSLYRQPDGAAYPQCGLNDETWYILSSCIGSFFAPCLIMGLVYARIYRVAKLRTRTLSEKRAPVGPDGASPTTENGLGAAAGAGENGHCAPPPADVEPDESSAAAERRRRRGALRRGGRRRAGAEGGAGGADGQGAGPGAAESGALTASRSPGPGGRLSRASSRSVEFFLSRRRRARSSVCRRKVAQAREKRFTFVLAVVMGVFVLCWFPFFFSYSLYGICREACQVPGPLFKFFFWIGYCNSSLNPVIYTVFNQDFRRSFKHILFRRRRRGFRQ
Procedure: To evaluate in radioligand binding assays the activity of compounds of the invention, human recombinant adrenergic α2C receptor expressed in insect Sf9 cells (Uhlen, S. et al, J. Pharmacol. Exp. Ther. 271:1558, 1994) in a modified Tris-HCl buffer (50 mM Tris-HCl, pH 7.4, 12.5 mM MgCl2, 2 mM EDTA) was used. Compounds of the invention were incubated with 1 nM [^3H]MK-912 for 60 min at 25° C. Non-specific binding was estimated in the presence of 10 μM WB-4101. Receptor proteins were filtered and washed, the filters were then counted to determine [^3H]MK-912 specifically bound. Compounds were screened at 1 μM or lower, using 1% DMSO as vehicle. Biochemical assay results are presented as the percent inhibition of specific binding in Table 3.

[3] = molecular target: T3, human recombinant adrenergic α1D receptor (Homo sapiens, UniProt P25100); test: Adrenergic α1D radioligand binding ([3H]Prazosin); settings: compound at 0.1 μM; read-out: Percentage inhibition of ligand binding, Adrenergic (0.1 μM) a1D
T3 construct: expressed in transfected cells; host or cells: human embryonic kidney (HEK-293) cells
T3 sequence (P25100 1-572): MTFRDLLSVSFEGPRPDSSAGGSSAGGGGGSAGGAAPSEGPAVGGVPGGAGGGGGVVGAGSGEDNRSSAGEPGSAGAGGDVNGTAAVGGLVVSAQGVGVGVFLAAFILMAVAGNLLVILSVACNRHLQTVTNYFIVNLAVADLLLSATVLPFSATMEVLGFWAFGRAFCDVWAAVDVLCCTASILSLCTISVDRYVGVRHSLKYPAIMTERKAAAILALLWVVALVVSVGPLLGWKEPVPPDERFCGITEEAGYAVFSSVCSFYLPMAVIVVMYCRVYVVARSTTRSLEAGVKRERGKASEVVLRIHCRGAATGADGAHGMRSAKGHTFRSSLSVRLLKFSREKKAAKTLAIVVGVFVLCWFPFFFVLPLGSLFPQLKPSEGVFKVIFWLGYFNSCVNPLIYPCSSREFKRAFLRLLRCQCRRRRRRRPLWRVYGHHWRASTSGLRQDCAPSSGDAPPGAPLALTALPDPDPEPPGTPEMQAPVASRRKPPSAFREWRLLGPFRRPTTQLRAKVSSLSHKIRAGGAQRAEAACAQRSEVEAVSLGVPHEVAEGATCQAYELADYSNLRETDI
Procedure: To evaluate in radioligand binding assays the activity of compounds of the invention, human recombinant adrenergic α1D receptor expressed in human embryonic kidney (HEK-293) cells (Kenny, B. et al, Br. J. Pharmacol. 115(6):981, 1995) in a 50 mM Tris-HCl buffer, pH 7.4, was used. Compounds of invention were incubated with 0.6 nM [^3H]Prazosin for 60 min at 25° C. Non-specific binding was estimated in the presence of 10 μM phentolamine. Receptor proteins were filtered and washed, the filters were then counted to determine [^3H]Prazosin specifically bound. Compounds were screened at 1 μM or lower, using 1% DMSO as vehicle. Biochemical assay results are presented as the percent inhibition of specific binding in Table 3.

SMILES	inhibition at 0.1 µM [1] [%]	inhibition at 0.1 µM [2] [%]	inhibition at 0.1 µM [3] [%]
C#CCC1(C)CN(C)Cc2c1n(C)c1ccc(C)cc21 (stereo not drawn) [Compound 47, 2,4,5,8-tetramethyl-4-(prop-2-ynyl)-2,3,4,5-tetrahydro-1H-pyrido[4,3-b]indole]	16	8	10
Cc1ccc2c(c1)c1c(n2C)C(C)(CCc2nc(-c3ccccc3)cs2)CN(C)C1 (stereo not drawn) [Compound 48]	34	15	13
